# Data as given in PMC5794198, “Inhibitors of Trypanosoma cruzi Sir2 related protein 1 as potential drugs against Chagas disease” (PLoS Neglected Tropical Diseases, 2018).
# “Also recorded” adds a separate entry of the source.
# Key:
# hERG channel = molecular target: T1, hERG channel (Homo sapiens, UniProt Q12809); assay: Predictor hERG Fluorescence Polarization Assay; format: binding
# T1 construct: purchased Invitrogen
# Protocol: (§1) To evaluate toxicity towards mammalian cell lines (hepatocytes (Seralab), neurons and MDCK cells (ATCC); a renal cell line from dogs), all the compounds were assayed with MTT [66]. Additionally, for cardiotoxicity evaluation, where toxic effects in cardiomyocytes could be affecting their function before being lethal, a hERG assay was performed according to the manufacturer’s protocol Predictor hERG Fluorescence Polarization Assay (Invitrogen). Briefly, inhibition of hERG channel was analysed by competition of BNIPSpd and a high-affinity red fluorescent hERG channel ligand. BNIPSpd (9) was mixed with the ligand and membranes containing hERG channel, incubated for 2 hrs at RT and the fluorescence polarization was measured using 530 / 590 nm ex/em filters using the Synergy 2 plate reader (Biotek).
# Gastric stability = format: in vitro ADME
# [1] = test system: T. cruzi epimastigotes, wild-type (WT); assay: T. cruzi epimastigote resazurin viability assay, wild-type; format: cell-based, Trypanosoma cruzi; details: CL-Brener, 64 h + 6 h resazurin; means ± SD (n = 4)
# Protocol: T. cruzi epimastigotes were seeded at 1.25 x 10^6 cells/mL in a 96-well plate in the presence of varying concentrations of test compounds. Following a 64-hour incubation, 15 μL of a resazurin solution (Sigma-Aldrich; 1.1 mg/mL in PBS). […] Each assay was performed in at least triplicate in parallel to the known trypanocidal agent nifurtimox.
# TcSir2rp1 = TcSir2rp1 (Trypanosoma cruzi, UniProt Q4DVL9); assay: TcSir2rp1 NAD+-dependent deacetylase fluorimetric assay (CycLex kit); format: biochemical
# Neurons = assay: MTT cytotoxicity on neurons; format: cell-based
# Protocol: as §1
# T. cruzi Y strain (Luc+) = assay: Mouse model of T. cruzi infection, bioluminescence imaging; format: in vivo, BALB/c mice; details: 5 mg/kg/day intravenously for 4 consecutive days from day 7 of infection; listed as BNIPSpd (9)
# Protocol: To evaluate BNIPSpd (9) efficacy in vivo, five- to six-week-old female BALB/c mice (Charles River) and infected with T. cruzi trypomastigotes expressing luciferase. Parasites were collected from the supernatants of a monolayer of Vero infected cells, washed and suspended in PBS-glucose 0.2%, and injected intraperitoneally (1 x 10^4 per mouse). After 7 days of infection, mice were treated with drugs for 4 consecutive days orally with (benznidazole in 20% Kolliphor HS 15) or intravenously with (BNIPSpd (9) in 10% DMSO) at a dose of 100 or 5 mg/kg/day, respectively. Infection and treatment efficiency were evaluated following subcutaneous injection of 2.1 mg of luciferin and through live imaging using an IVIS Lumina LT (Perkin Elmer). Images of the animals were analysed using the Living Image software (Perkin Elmer).
# Supplementary file pntd.0006180.s006.tif: S5 Fig In vivo efficacy testing of BNIPSpd (9). A) Mice were infected with 10^4 Luc^+ trypomastigotes by intraperitoneal injection. […] In the lower panel, bioluminescence signal of whole mice represented in average radiance (photons/sec/cm^2/sr) quantified before and after treatment. […] B) Snapshot Pharmacokinetics of BNIPSpd (9) in BALB/c mice by quantification of BNIPSpd (9) in the blood of mice by UHPLC-MS/MS ESI+ at different time-points after administration of a 5 mg/kg dose by intravenous injection. […]
# [2] = MTT cytotoxicity on hepatocytes; format: cell-based; details: hepatocytes, CC50 cell line / EC50 T. cruzi; read-out: Selectivity Index, hepatocytes
# Protocol: as §1
# Hepatocytes = assay: MTT cytotoxicity on hepatocytes; format: cell-based; details: MTT
# Protocol: as §1
# [3] = C2C12 host cell cytotoxicity (cell ratio) in HCS assay; format: cell-based, Mouse; details: mouse, cell ratio, 72 h; read-out: C2C12 Cytotoxicity (CC50 ± SD)
# Protocol: (§2) For the evaluation of the activity against T. cruzi amastigotes, high-content screening (HCS) was designed. In summary, 100 μL of host C2C12 cells (ATCC) were seeded in clear bottom black 96-well plates at a density of 2.5 x 10^4 cells/mL (2.5 × 10^3 cells/well). […] The parasites were allowed to infect for a 24 hr period, after which compounds were added in a volume of 50 μL. […] After 72 hrs of compound incubation, the wells were fixed with 4% paraformaldehyde for 15 to 30 mins. The plates were then washed once with deionized water and stained with a solution of DAPI (3 μM) for 1 hour. Plates were imaged in an INCell 2000 (GE Healthcare) high-content analyser by taking 16 pictures per well at 20 X objective amplification. Images were analysed with INCell Developer software (GE Healthcare) using the segmentation of host cell nuclei and parasite kinetoplast DNA. The measurement output used was the average number of parasites per cell calculated by the ratio of host cell nuclei/parasite kinetoplast DNA.
# C2C12 cells = assay: as above; format: cell-based, Mouse; details: CC50 cell line (C2C12)/EC50 T. cruzi
# Protocol: as §2
# [4] = single dose 10 μM, 200 μM NAD+, 10 μM peptide
# Sequence of TcSir2rp1 (Q4DVL9 entry or part of it): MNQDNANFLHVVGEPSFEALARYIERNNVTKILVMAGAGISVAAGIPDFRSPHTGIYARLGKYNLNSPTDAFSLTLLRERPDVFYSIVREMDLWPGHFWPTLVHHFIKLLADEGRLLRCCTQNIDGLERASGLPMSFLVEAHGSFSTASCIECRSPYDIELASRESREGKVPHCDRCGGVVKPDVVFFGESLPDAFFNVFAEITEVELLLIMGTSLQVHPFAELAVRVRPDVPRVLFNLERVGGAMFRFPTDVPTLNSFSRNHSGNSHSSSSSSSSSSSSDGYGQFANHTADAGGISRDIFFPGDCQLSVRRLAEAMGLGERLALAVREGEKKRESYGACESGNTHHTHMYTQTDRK
# T1 sequence (Q12809 whole entry): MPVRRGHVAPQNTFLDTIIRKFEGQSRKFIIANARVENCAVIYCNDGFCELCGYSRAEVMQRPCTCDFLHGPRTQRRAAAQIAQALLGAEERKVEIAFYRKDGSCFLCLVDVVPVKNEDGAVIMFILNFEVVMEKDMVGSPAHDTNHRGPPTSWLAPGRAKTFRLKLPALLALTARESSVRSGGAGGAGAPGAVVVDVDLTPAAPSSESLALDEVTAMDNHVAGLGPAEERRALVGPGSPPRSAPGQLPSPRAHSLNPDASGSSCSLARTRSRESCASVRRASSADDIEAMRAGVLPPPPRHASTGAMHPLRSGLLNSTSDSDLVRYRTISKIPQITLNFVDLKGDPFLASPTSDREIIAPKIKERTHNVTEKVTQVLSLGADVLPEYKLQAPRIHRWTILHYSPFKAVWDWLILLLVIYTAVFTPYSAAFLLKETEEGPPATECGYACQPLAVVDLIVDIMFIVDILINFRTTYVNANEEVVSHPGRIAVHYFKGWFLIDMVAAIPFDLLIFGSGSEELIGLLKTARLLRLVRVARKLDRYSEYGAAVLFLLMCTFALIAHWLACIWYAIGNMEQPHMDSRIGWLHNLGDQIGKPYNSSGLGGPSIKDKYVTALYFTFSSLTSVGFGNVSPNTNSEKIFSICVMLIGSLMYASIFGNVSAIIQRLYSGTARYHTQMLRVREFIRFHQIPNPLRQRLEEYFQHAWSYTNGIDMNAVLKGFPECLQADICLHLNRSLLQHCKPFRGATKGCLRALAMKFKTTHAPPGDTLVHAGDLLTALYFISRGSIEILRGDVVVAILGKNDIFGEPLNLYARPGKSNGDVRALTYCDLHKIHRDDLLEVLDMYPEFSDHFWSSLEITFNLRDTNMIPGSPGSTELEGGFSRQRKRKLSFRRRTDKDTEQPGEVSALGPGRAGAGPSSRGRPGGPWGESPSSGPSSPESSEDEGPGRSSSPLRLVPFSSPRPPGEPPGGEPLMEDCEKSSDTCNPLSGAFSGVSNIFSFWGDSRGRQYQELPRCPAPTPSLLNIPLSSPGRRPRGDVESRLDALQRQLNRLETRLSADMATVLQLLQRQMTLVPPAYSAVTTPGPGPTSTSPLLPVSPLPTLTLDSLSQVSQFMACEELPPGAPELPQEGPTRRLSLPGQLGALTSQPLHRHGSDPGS
smiles,measurement,setting,value
"O=C1c2cccc3cccc(c23)C(=O)N1CCCNCCCCNCCCNCCCN1C(=O)c2cccc3cccc(c23)C1=O [Compound 9, BNIP Spermidine]",hERG channel functional,hERG channel,99.6%
same,Cardiotoxicity (hERG predictor),"hERG channel; fluorescence polarization competition, 2 hrs RT",0.36 ± 0.51%
same,Gastric stability,Gastric stability,100%
same,EC50 against T. cruzi epimastigotes WT,[1],moderate activity
same,inhibition at 50 µM,TcSir2rp1; 50 μM,72 ± 6%
same,Inhibition of NAD+-dependent deacetylase activity of TcSir2rp1,TcSir2rp1; [4],statistically significant inhibition
same,inhibition at 10 µM,TcSir2rp1; [4],~50%
same,Neurotoxicity (Neurons) cytotoxicity,Neurons,≥ 3.9 µM
same,In vivo activity (bioluminescence signal vs vehicle),T. cruzi Y strain (Luc+),did not exhibit any in vivo activity; also recorded: lack of in vivo activity
same,selectivity ratio,[2],~1
same,Hepatotoxicity (Hepatocytes) cytotoxicity,Hepatocytes,≥ 3.1 µM
same,CC50 at 72 h,[3],24.5 ± 0.45 µM
same,Selectivity Index,C2C12 cells,8.8
